Columns and labels:
Plasmopara viticola [1] = assay: Activity against peronospora of grapevines caused by Plasmopara viticola (Use Example 3); type: in vivo; conditions: 250 ppm, potted vines sprayed to runoff, inoculated next day; untreated plants 90% infected
Experimental: (§1) The active compounds were prepared as a stock solution comprising 25 mg of active compound which was made up to 10 ml using a mixture of acetone and/or DMSO and the emulsifier Uniperol® EL (wetting agent having emulsifying and dispersing action based on ethoxylated alkylphenols) in a volume ratio of solvent/emulsifier of 99/1. The mixture was then made up to 100 ml with water. This stock solution was diluted with the solvent/emulsifier/water mixture described to the concentration of active compounds stated below.
(§2) Leaves of potted vines were sprayed to runoff point with an aqueous suspension having the concentration of active compounds stated below. The next day, the undersides of the leaves were inoculated with an aqueous sporangia suspension of Plasmopara viticola. The vines were then initially placed in a water-vapor-saturated chamber at 24° C. for 48 hours and then in a greenhouse at temperatures between 20° C. and 30° C. for 5 days. After this time, the plants were once more placed in a humid chamber for 16 hours to accelerate the eruption of sporangiospores. The extent of the development of the infection on the undersides of the leaves was then determined visually.

Plasmopara viticola [2] = assay: Activity against peronospora of grapevines caused by Plasmopara viticola (Comparative Example 1, inoculation next day); type: in vivo; conditions: 250 ppm, potted vines sprayed to runoff, inoculated next day; untreated plants 90% infected
Experimental: as §1, §2

Plasmopara viticola [3] = assay: Activity against peronospora of grapevines caused by Plasmopara viticola, 7 day protective treatment (Comparative Example 2); type: in vivo; conditions: 250 ppm, potted vines, inoculated 7 days after spraying; untreated plants 90% infected
Experimental: as §1
Leaves of potted vines were sprayed to runoff point with an aqueous suspension having the concentration of active compounds stated below. To be able to assess the persistency of the substances, the plants were, after the spray coating had dried on, placed in a greenhouse for 7 days. Only then were the leaves inoculated with an aqueous zoospore suspension of Plasmopara viticola. The vines were then initially placed in a water-vapor-saturated chamber at 24° C. for 48 hours and then in a greenhouse at temperatures between 20 and 30° C. for 5 days. After this time, the plants were once more placed in a humid chamber to accelerate the eruption of sporangiospores. The extent of the development of the infection on the undersides of the leaves was then determined visually.

CCCc1nc2ncnn2c(N)c1CCc1ccccc1 [I-2, 7-amino-6-(2-phenylethyl)-5-propyl-(1,2,4)-triazolo-(1,5-a)-pyrimidine]
infection of the plants (undersides of leaves, determined visually) (Plasmopara viticola [1]): no infection
melting point: 190 to 191 °C

Cc1nc2ncnn2c(N)c1CCCc1ccccc1 [Compound A]
infection of the plants (undersides of leaves, determined visually) (Plasmopara viticola [2]): 90%
infection of the plants (undersides of leaves, determined visually) (Plasmopara viticola [3]): 70%

CCc1nc2ncnn2c(N)c1CCc1ccccc1 [I-1, 7-amino-5-ethyl-6-(2-phenylethyl)-(1,2,4)-triazolo-(1,5-a)-pyrimidine]
infection of the plants (undersides of leaves, determined visually) (Plasmopara viticola [1]): no infection
melting point: 210 to 211 °C

Source: patent publication US20080188494A1 (priority 2005, published 2008)
